Reference: patent US12630501B2, “Anti-fibrotic compounds and use thereof” (HADASIT MEDICAL RESEARCH SERVICES AND DEVELOPMENT LTD., priority 2019, dated 2026)

Experiments:
[1] = system: Ku70/FLIP complex; assay: Ku70 immunoprecipitation with FLIP immunoblot in IPF-lung myofibroblasts; assay type: cell-based, human; conditions: CMH 30 μM, 72 h
Protocol: Human lung myofibroblasts Differentiated fibroblasts from IPF-lungs and controls from patient lung biopsies performed for tumor diagnosis were obtained under a protocol detailed in Wallach-Dayan et al., J. Autoimmun. 59: 67-76, 2015. LL 97A (AlMy) (ATCC® CCL-191™)-IPF-lung, and LL 24 (ATCC® CCL-151™)-normal lung fibroblast cell lines were used.
Immunoprecipitation and immunoblotting Standard protocols were performed as described in Golan-Gerstl et al., Am. J. Respir. Cell Mol. Biol. 47: 271-279, 2012.
FLIP downregulation from an OD of 1.85 to 0.49 (about 3.5-fold) was detected in WB (FIG. 4F), and a […] from a mean fluorescence intensity (MFI)=10^3 to only 10^1 was detected with flow cytometry (FIG. 4G). Thus, SIRT1-mediated Ku70-deacetylation stabilizes IPF-lung myofibroblast FLIP via Ku70/FLIP complex. This effect of CMH on Ku70 further disrupts Ku70/FLIP complex and destabilizes FLIP in IPF-lung myofibroblasts.

[2] = system: IPF myofibroblasts of CCL-191 line; assay: Expression of specific genes in IPF myofibroblasts incubated with CMH (Table 1); assay type: cell-based, human; conditions: CCL-191 incubated with CMH; 2-^ΔΔCt, mean±standard error
Protocol: Table 1 below indicates the expression of specific genes in IPF myofibroblasts of CCL-191 line incubated with CMH and the vehicle, correspondingly, calculated by 2-^ΔΔCt the data is represented as mean±standard error).

[3] = system: IPF-lung myofibroblasts; assay: Anti-Fas mAb-mediated cell death of IPF-lung myofibroblasts (trypan blue, caspase-3 cleavage); assay type: cell-based, human
Protocol: Cell death and apoptosis Apoptosis was assessed with Annexin V affinity labeling, trypan blue exclusion, and caspase-3 cleavage in WB as described in Golan-Gerstl et al., Am. J. Respir. Cell Mol. Biol. 36: 270-275, 2007; Wallach-Dayan et al., PNAS USA 104: 20460-20465, 2007; and Wallach-Dayan et al., Am. J. Physiol. Lung Cell Mol. Physiol. 290: L790-L796, 2006.
Caspase-8 activation further targets effector caspase-3 and caspase-7, a parallel […] pathway, caspases 6 and 9, MAPKs, and Bim phosphorylations with binding cascades to Bax, Apaf-1, and caspase-9, allowing Bax-mediated cell death to be detected as well. Concomitantly, inhibitors of these processes, including FLIP, show negative interaction with FADD and with the inhibitors of apoptotic proteins (IAPs). […] In addition, CMH increased CH-11 anti-human Fas mAb-mediated IPF-myofibroblast cell death (24 h, 10 μM) above that produced by treatment with the vehicle alone (4% DMSO), as shown by microscope images (FIG. 5A) and trypan blue exclusion (FIG. 5A, quantification in inserts, and FIG. 5B, graphical representation), with 0.9-1×10^5 viable cells in control compared to only 0.3×10^5 cells following CMH. In fact, CMH-treated cells were 10 times more likely to undergo Fas-induced apoptosis (2.8 compared to 0.3), as determined by the OD of cleaved to uncleaved caspase-3 ratios (FIG. 5C). CMH therefore amplifies Fas signaling cascades above those induced by Fas alone. Thus, multiple intracellular anti-apoptotic signaling pathways mediated by SIRT1 and Ku70 were altered by CMH in vitro, which further enhanced Fas-apoptosis cascades.

[4] = target: HDAC3 (Homo sapiens, UniProt O15379); conditions: prostate cancer cells; cited from earlier work
Sequence of HDAC3 (O15379 whole entry, species assumed): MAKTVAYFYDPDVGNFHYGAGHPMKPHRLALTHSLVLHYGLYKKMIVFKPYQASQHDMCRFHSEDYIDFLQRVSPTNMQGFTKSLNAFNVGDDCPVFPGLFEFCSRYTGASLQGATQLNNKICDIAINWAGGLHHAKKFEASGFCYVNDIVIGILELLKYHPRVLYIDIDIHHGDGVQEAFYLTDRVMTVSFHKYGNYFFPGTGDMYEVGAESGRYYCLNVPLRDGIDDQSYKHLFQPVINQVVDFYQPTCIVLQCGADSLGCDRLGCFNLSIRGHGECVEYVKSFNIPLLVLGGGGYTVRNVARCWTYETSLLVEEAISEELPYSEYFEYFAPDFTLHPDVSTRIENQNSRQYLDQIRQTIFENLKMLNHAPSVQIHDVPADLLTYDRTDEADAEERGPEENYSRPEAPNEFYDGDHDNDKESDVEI
Sequence of HDAC3 (Q9Y618 395-489 partner limits assumed, species assumed): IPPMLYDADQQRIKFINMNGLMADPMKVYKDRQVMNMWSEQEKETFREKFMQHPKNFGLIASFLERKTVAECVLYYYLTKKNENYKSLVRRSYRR

[5] = target: HDAC2 (Homo sapiens, UniProt Q92769); conditions: prostate cancer cells; cited from earlier work
Sequence of HDAC2 (Q92769 whole entry, species assumed): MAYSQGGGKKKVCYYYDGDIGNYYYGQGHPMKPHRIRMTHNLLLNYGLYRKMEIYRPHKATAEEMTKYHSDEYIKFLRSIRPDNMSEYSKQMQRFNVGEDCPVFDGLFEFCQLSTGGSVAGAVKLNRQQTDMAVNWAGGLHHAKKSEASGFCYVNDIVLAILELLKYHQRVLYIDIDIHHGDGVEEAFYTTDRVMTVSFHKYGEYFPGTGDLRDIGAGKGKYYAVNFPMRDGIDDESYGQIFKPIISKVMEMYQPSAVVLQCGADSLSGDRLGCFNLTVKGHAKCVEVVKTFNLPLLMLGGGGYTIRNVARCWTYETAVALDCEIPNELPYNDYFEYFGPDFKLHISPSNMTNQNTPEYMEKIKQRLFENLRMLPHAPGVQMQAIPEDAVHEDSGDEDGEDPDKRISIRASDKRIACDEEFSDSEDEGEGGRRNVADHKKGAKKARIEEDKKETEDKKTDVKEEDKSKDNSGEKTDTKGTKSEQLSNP

Cc1cc(Cl)ccc1OCCCC(=O)NO [CMH, 4-(4-chloro-2-methylphenoxy)-N-hydroxybutanamide]
Decrease of Ku70/FLIP complex [1]: about 1.5 fold
Ku70/FLIP complex in FLIP-IB ([1]; from 6.2): 4.1 OD
AIFM1 expression, M ± m [2]: 12.3 ± 2.89
BAX expression, M ± m [2]: 319.29 ± 78.06
BCL2L10 expression, M ± m [2]: 0.13 ± 0.05
BCL2L11 expression, M ± m [2]: 0.58 ± 0.09
CASP8 expression, M ± m [2]: 7.13 ± 4.18
CASP9 expression, M ± m [2]: 9.57 ± 6.69
CFLAR expression, M ± m [2]: 3.5 ± 1.42
CFLAR-AS1 expression, M ± m [2]: 0.11 ± 0.04
DIABLO expression, M ± m [2]: 13.48 ± 3.27
E2F1 expression, M ± m [2]: 0.39 ± 0.21
HIC1 expression, M ± m [2]: 0.68 ± 0.44
MCL1 expression, M ± m [2]: 67.57 ± 34.04
PPP1R13B expression, M ± m [2]: 0.1 ± 0.05
PRKCD expression, M ± m [2]: 9 ± 4
PRKCDBP expression, M ± m [2]: 21.87 ± 9.21
SIRT1 expression, M ± m [2]: 0.48 ± 0.04
TP53AIP1 expression, M ± m [2]: 1.11 ± 0.2
TP53INP2 expression, M ± m [2]: 8.16 ± 0.54
TP53 expression, M ± m [2]: 1.8 ± 1.19
XRCC6 expression, M ± m [2]: 84.85 ± 22.88
Viable cells, trypan blue exclusion ([3]; CMH plus CH-11 anti-human Fas mAb (24 h, 10 μM), control 0.9-1×10^5): 0.3×10^5 cells
OD of cleaved to uncleaved caspase-3 ratio ([3]; CMH plus anti-Fas mAb, vehicle 0.3): 2.8
Likelihood to undergo Fas-induced apoptosis vs. vehicle ([3]; from cleaved to uncleaved caspase-3 ratios): 10 times
Inhibition of HDAC3 [4]: Selective inhibition
Inhibition of HDAC2 [5]: not inhibited
